# Measured values as given in article PMC11123841, “Discovery and Synthesis of Hydroxy-L-Proline Blockers of the Neutral Amino Acid Transporters SLC1A4 (ASCT1) and SLC1A5 (ASCT2)” (Molecules, 2024).
# Where “and” joins values, the source holds several entries; their conditions need not be identical. Identical values can stand only once. Like-named read-outs stand apart in the source and are kept apart here.
# T1: SLC1A4 (Homo sapiens, UniProt P43007)
# T1 construct: expressed in transfected cells; host or cells: Xenopus laevis oocytes (cRNA injection)
# T1 sequence (P43007 1-532): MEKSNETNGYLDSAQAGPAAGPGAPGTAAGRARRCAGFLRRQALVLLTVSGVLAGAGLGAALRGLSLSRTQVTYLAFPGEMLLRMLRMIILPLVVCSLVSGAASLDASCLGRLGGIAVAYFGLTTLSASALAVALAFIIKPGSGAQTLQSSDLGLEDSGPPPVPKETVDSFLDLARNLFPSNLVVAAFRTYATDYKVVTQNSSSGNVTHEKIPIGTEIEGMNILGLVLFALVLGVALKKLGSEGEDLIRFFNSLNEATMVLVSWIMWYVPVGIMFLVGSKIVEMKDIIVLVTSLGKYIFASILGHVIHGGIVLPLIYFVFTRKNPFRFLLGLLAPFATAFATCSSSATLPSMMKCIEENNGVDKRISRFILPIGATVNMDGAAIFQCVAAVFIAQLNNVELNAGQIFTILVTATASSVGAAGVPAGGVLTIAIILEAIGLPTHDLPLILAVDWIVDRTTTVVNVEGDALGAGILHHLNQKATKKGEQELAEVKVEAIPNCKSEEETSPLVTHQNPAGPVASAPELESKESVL
# T2: mSLC1A5 (Mus musculus, UniProt P51912)
# T2 construct: expressed in transfected cells; host or cells: Xenopus laevis oocytes (cRNA injection)
# T2 sequence (P51912 1-553): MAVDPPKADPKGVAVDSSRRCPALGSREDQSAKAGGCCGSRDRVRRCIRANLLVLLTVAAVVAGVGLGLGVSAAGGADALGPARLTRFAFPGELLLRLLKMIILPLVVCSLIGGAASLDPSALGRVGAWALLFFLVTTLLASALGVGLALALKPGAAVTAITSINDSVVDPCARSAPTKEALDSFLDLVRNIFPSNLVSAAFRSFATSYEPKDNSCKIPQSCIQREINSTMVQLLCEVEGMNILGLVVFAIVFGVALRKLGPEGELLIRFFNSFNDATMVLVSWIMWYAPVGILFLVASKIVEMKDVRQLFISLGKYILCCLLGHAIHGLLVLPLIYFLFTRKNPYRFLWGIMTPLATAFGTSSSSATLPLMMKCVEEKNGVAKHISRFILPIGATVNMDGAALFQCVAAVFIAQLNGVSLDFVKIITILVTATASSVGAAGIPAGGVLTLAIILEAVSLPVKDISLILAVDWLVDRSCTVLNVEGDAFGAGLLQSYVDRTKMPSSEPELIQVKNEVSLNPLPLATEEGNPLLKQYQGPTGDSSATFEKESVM
# T3: SLC1A5 (Mus musculus, UniProt P51912)
# T3 construct: expressed in transfected cells; host or cells: Xenopus laevis oocytes (cRNA injection)
# T3 sequence (P51912 1-553): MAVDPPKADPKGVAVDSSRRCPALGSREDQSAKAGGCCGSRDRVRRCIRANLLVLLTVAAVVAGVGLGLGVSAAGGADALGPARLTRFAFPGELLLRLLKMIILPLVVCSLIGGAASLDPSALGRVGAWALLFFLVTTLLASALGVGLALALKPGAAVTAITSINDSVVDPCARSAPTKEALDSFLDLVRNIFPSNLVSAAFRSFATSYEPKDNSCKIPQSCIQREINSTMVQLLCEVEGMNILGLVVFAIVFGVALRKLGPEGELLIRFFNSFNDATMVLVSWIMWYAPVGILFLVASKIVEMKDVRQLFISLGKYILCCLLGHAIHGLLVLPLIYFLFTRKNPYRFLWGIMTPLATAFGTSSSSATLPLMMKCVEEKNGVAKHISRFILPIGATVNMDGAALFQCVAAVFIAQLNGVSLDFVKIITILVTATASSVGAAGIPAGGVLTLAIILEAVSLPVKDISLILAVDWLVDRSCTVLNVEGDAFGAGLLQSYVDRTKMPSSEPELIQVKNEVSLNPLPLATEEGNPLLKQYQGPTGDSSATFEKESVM
# How the values were obtained:
# [1] = molecular target: T1, SLC1A4; experiment: TEVC block of anion leak conductance in oocytes; assay type: cell-based
# Text: (§1) The currents induced by substrates and blocked by hydroxyproline analogs shared a reversal potential shown in the current/voltage relationship consistent with the conductance originating from the same ion pore (Figure 3, inset). […] The observed dose–response relationships are independent of competing substrates, and thus provide a direct measure of the equilibrium inhibition constant (Ki). Each synthetic hydroxyproline analog was functionally assessed for its capacity to inhibit SLC1A4 and SLC1A5 leak currents with affinities reported in Table 1 as determined or approximated Ki.
# (§2) Two-electrode voltage clamp (TEVC) transporter currents were recorded with a GeneClamp 500 amplifier and Digidata 1320A analog–digital interface (Molecular Devices, San Jose, CA, USA). Electrodes (0.2–1.0 MΩ) were filled with 3M KCl and the recording chamber was grounded with an agar bridge. Data were acquired with Axograph (v1.7.6) and LabChart (v7) and analyzed with Kaleidagraph software (v4.1) (Synergy, Reading, PA, USA). Uncoupled anion currents associated with the transport of substrate and block of SLC1A4 or SLC1A5 mediated leak conductance were recorded in the presence of Ringer with 50% substitution of NaCl by NaSCN to amplify the non-transported anion conductance.
# (§3) Figure 3 AHPCs block a leak current in SLC1A4 and SLC1A5. […] Inset (A): The current and voltage relationship for SLC1A4 currents activated by Ala or blocked by 14b are determined by subtracting voltage jumps in buffer.
# [2] = molecular target: T2, mSLC1A5; experiment: TEVC block of anion leak conductance in oocytes; assay type: cell-based
# Text: as §1, §2, §3
# [3] = molecular target: T3, SLC1A5; experiment: [3H]L-Gln radiolabeled uptake competition in oocytes; assay type: cell-based; settings: 10 µM [3H]L-Gln uptake in SLC1A5; read-out: IC50, block of [3H]L-Gln uptake
# Protocol: (§4) Uptake was halted by washing 3 times with 4 °C ND96 buffer. Oocytes were then lysed in 0.1% Triton X-100, and radioactivity was counted via liquid scintillation. Dose response curves were generated by fitting fractional inhibition (I) to the expression I = Imax × [inhibitor]/([inhibitor] + IC50).
# (A) SLC1A4 dose response curves for substrate activated anion currents using two-electrode voltage clamp of Xenopus lavies oocytes (−30 mV). […] (B) SLC1A5 dose response curve for substrate activated anion currents using two-electrode voltage clamp (−30 mV). […] Extracellular solutions contained 50 mM NaSCN.
# [4] = molecular target: T1, SLC1A4; experiment: [3H]L-alanine heteroexchange (trans-stimulation) in preloaded oocytes; assay type: cell-based; settings: 3 µM BPOHP, 1 mM L-alanine
# Protocol: as §4
# [5] = molecular target: T3, SLC1A5; experiment: as above; assay type: cell-based; settings: 3 µM BPOHP, 1 mM L-alanine
# Protocol: as §4
# [6] = substrate: C[C@H](N)C(=O)O; experiment: cells, lysate or membranes; settings: other: SLC1A4; substrate activated anion currents, TEVC −30 mV, 50 mM NaSCN, Michaelis-Menten fit
# [7] = substrate: O=C(O)[C@@H]1C[C@@H](O)CN1; experiment: TEVC substrate-induced SCN- anion currents in Xenopus oocytes; assay type: cell-based, human; settings: other: SLC1A4; substrate activated anion currents, TEVC −30 mV, 50 mM NaSCN, Michaelis-Menten fit
# [8] = substrate: O=C(O)[C@H]1NCC[C@@H]1O; experiment: as above; assay type: cell-based, human; settings: other: SLC1A4; substrate activated anion currents, TEVC −30 mV, 50 mM NaSCN, Michaelis-Menten fit
# [9] = from dose–response of blocked anion conductance, compounds tested only once without standard error, read-out: SLC1A4 Ki
# [10] = mSLC1A5, from dose–response of blocked anion conductance, compounds tested only once without standard error, read-out: SLC1A5 Ki
# [11] = from dose–response of blocked anion conductance, compounds tested only once without standard error
molecule,measurement,setting,value
O=C(O)[C@H]1NC[C@@H](OCc2ccccc2)[C@@H]1O [14c],block of anion leak conductance / inhibition,[1]; SLC1A4,block the anion conductance
same,fold higher affinity than 12a,[1]; SLC1A4,~ 6 fold
same,Ki,"[1]; SLC1A4, read-out: Ki",< 100 µM
same,block of anion leak conductance / inhibition,[2]; SLC1A5,block the anion conductance
same,fold higher affinity than 12a,[2]; SLC1A5,~ 6 fold
same,Ki,"[2]; SLC1A5, read-out: Ki",< 100 µM
CC(C)O[C@H]1CN[C@H](C(=O)O)[C@@H]1O [17b],Ki,[1]; [9],505 ± 105 µM
same,Ki,[2]; [10],~400 µM
"C[C@]1(O)CN[C@H](C(=O)O)C1 [compound 26, cis-4-methyl-trans-4-hydroxy-L-proline]",SLC1A4 Ki (µM),[1]; [11],No Block
"CC1CNC(C(=O)O)C1O [10a, trans-3-hydroxy-cis-4-methyl-L-proline]",block of anion leak conductance / inhibition,[1]; SLC1A4,no inhibition of transport
same,Ki,[1]; [9],1050 ± 110 µM
same,block of anion leak conductance / inhibition,[2]; SLC1A5,no inhibition of transport
same,Ki,[2]; [10],1150 ± 283 µM
CC1C(O)CNC1C(=O)O (centres unmarked) [10b],Ki,[1]; [9],564 ± 149 µM
same,Ki,[2]; [10],922 ± 316 µM
CO[C@H]1CN[C@H](C(=O)O)[C@@H]1O [17a],Ki,"[1]; SLC1A4, read-out: Ki",> 500 µM
same,Ki,"[2]; SLC1A5, read-out: Ki",> 500 µM
"O=C(O)C1NCC(O)C1c1ccccc1 [10d, cis-3-phenyl-4-trans-hydroxy-L-proline]",Ki,[1]; [9],332 ± 74 µM
same,Ki,[2]; [10],1130 ± 318 µM
O=C(O)C1NCC(Oc2ccccc2)C1O (centres unmarked) [12a],Ki,[1]; [9],150 ± 43 µM
same,Ki,[2]; [10],141 ± 20 µM
O=C(O)C1NCC(O)C1Oc1ccccc1 (centres unmarked) [12b],Ki,[1]; [9],594 ± 191 µM
same,Ki,[2]; [10],502 ± 110 µM
"O=C(O)[C@H]1NC[C@H](OCc2ccccc2)[C@H]1O [17c, cis-3-hydroxy-trans-4-benzyloxy-L-proline]",Ki,"[1]; SLC1A4, read-out: Ki",> 500 µM
same,Ki,"[2]; SLC1A5, read-out: Ki",> 500 µM
"O=C(O)[C@H]1NCC[C@@H]1O [3-HP, trans-3-hydroxy-L-proline]",IC50,[3],39 µM
O=C(O)C1NCC(c2ccccc2)C1O (centres unmarked) [10c],Ki,[1]; [9],~600 µM
same,Ki,[2]; [10],~600 µM
"O=C(O)C1NCC(Oc2ccccc2)C1O [12c, (2S,3R,4S)-3-hydroxy-4-phenoxypyrrolidin-2-carboxylate]",Ki,[1]; [9],~150 µM
same,Ki,[2]; [10],~150 µM
"C[C@@]1(O)CN[C@H](C(=O)O)C1 [compound 27, cis-4-hydroxy-trans-4-methyl-L-proline]",SLC1A4 Ki (µM),[1]; [11],No Block
"C[C@H](N)C(=O)O [L-Ala, L-alanine, reference compound]",[3H]L-alanine exchange,[4],induces exchange
same,[3H]L-alanine exchange,[5],induces exchange
"CC(C)O[C@@H]1CN[C@H](C(=O)O)[C@H]1O [14b, trans-3-hydroxy-cis-4-isopropoxy-L-proline]",block of anion leak conductance / inhibition,[1]; SLC1A4,block the anion conductance
same,block of anion leak conductance / inhibition,[2]; SLC1A5,block the anion conductance
"SLC1A4 (hASCT1) (Homo sapiens) (protein, expressed in transfected cells; host or cells: Xenopus laevis oocytes (cRNA injection)) MEKSNETNGYLDSAQAGPAAGPGAPGTAAGRARRCAGFLRRQALVLLTVSGVLAGAGLGAALRGLSLSRTQVTYLAFPGEMLLRMLRMIILPLVVCSLVSGAASLDASCLGRLGGIAVAYFGLTTLSASALAVALAFIIKPGSGAQTLQSSDLGLEDSGPPPVPKETVDSFLDLARNLFPSNLVVAAFRTYATDYKVVTQNSSSGNVTHEKIPIGTEIEGMNILGLVLFALVLGVALKKLGSEGEDLIRFFNSLNEATMVLVSWIMWYVPVGIMFLVGSKIVEMKDIIVLVTSLGKYIFASILGHVIHGGIVLPLIYFVFTRKNPFRFLLGLLAPFATAFATCSSSATLPSMMKCIEENNGVDKRISRFILPIGATVNMDGAAIFQCVAAVFIAQLNNVELNAGQIFTILVTATASSVGAAGVPAGGVLTIAIILEAIGLPTHDLPLILAVDWIVDRTTTVVNVEGDALGAGILHHLNQKATKKGEQELAEVKVEAIPNCKSEEETSPLVTHQNPAGPVASAPELESKESVL",Km,[6],40.0 ± 1.8 µM and 40.3 µM
same,Km,[7],17.1 ± 0.8 µM
same,Km,[8],13.5 ± 1.8 µM
